Test results published in PubChem BioAssay AID651650 (Sanford-Burnham Center for Chemical Genomics, 2012).
One block for each compound: values may come before it. Activity calls are given as the source filed them.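 Rule for the calls: active = mean IC50 below 20 µM in each of the two panels, so potent in both; inactive = the rest.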

Target: Neuropilin-1 (Homo sapiens) (UniProt O14786)
Experiment: blockers of CendR peptide binding to NRP-1 – biochemical, FP and AlphaScreen panel, dose response (AID 651650)
Conditions: NRP-1 b1b2 / RPARPAR peptide binding, FP or AlphaScreen
[1] = AlphaScreen, run 1, individual panel run IC50
[2] = FP, run 1, individual panel run IC50
[3] = FP, run 2, individual panel run IC50

Chain of Neuropilin-1 (Homo sapiens) (O14786 whole entry, looked up): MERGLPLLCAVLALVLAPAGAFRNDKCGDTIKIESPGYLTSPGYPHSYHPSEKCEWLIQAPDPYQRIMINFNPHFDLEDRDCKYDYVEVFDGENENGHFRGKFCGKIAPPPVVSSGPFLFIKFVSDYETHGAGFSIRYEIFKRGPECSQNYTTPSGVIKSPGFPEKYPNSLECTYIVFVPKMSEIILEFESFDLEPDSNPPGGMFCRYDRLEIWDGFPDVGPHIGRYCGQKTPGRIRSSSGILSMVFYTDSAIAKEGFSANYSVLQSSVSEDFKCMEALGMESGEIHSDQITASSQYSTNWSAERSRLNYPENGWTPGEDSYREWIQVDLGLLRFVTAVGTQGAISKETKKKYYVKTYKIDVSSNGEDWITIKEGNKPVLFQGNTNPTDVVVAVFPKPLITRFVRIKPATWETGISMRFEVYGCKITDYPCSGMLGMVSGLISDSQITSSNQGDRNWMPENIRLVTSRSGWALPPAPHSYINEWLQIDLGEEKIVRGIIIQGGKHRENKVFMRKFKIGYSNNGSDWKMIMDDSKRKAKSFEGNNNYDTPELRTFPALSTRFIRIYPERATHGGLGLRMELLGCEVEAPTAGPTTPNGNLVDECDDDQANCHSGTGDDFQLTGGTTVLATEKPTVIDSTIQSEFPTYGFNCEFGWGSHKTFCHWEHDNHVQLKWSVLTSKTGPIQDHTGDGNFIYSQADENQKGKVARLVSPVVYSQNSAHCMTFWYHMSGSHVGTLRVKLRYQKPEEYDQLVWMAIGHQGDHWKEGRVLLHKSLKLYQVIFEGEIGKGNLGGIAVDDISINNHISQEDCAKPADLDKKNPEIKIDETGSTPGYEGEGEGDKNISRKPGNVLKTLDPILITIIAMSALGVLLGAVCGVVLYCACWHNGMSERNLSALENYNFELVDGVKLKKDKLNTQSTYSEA

SMILES: O=C(O)c1ccccc1CSc1ccccn1
IC50 (AlphaScreen, mean of runs): 16.5 µM
IC50 [1]: 16.5 µM
IC50 (FP, mean of runs): > 95 µM (inactive)
IC50 [2]: > 95 µM
IC50 [3]: > 95 µM

SMILES: Cc1ccccc1Nc1nc(N)nc(COC(=O)CC2CC3CCC2C3)n1 (stereo not given)
IC50 (AlphaScreen, mean of runs): > 100 µM (inactive)
IC50 [1]: > 100 µM
IC50 (FP, mean of runs): > 95 µM (inactive)
IC50 [2]: > 95 µM
IC50 [3]: > 95 µM

SMILES: C#CCCOC(=O)N1C2=NC(C(=O)OC)=C(C(=O)OC)[C@@H]3N(C)c4ccccc4[C@]23C[C@H]1CO
IC50 (AlphaScreen, mean of runs): 9.53 µM
IC50 [1]: 9.53 µM
IC50 (FP, mean of runs): > 95 µM (inactive)
IC50 [2]: > 95 µM
IC50 [3]: > 95 µM

SMILES: COc1ccc(N(CC(=O)NCc2ccco2)C(=O)CCC(=O)Nc2ccccn2)cc1
IC50 (AlphaScreen, mean of runs): > 100 µM (inactive)
IC50 [1]: > 100 µM
IC50 (FP, mean of runs): > 95 µM (inactive)
IC50 [2]: > 95 µM
IC50 [3]: > 95 µM

SMILES: Cc1ccc2c(c1)C(c1ccncc1)=NNC(c1ccc(F)cc1)=N2
IC50 (AlphaScreen, mean of runs): > 100 µM (inactive)
IC50 [1]: > 100 µM
IC50 (FP, mean of runs): > 95 µM (inactive)
IC50 [2]: > 95 µM
IC50 [3]: > 95 µM

SMILES: CCOc1ccccc1N1CCN(C(=O)c2ccncc2)CC1
IC50 (AlphaScreen, mean of runs): > 100 µM (inactive)
IC50 [1]: > 100 µM
IC50 (FP, mean of runs): > 95 µM (inactive)
IC50 [2]: > 95 µM
IC50 [3]: > 95 µM

SMILES: CC(=O)NCCNc1nc(NC(C)C)nc2ccsc12
IC50 (AlphaScreen, mean of runs): > 100 µM (inactive)
IC50 [1]: > 100 µM
IC50 (FP, mean of runs): > 95 µM (inactive)
IC50 [2]: > 95 µM
IC50 [3]: > 95 µM

SMILES: CC1(C(=O)NCc2cccc3ccccc23)CCN1Cc1cccc2c1OCO2 (stereo not given)
IC50 (AlphaScreen, mean of runs): > 100 µM (inactive)
IC50 [1]: > 100 µM
IC50 (FP, mean of runs): > 95 µM (inactive)
IC50 [2]: > 95 µM
IC50 [3]: > 95 µM

SMILES: COc1ccc(C2CC(C(F)(F)F)n3nc(C(=O)O)c(Cl)c3N2)cc1OC (stereo not given)
IC50 (AlphaScreen, mean of runs): > 100 µM (inactive)
IC50 [1]: > 100 µM
IC50 (FP, mean of runs): inactive
IC50 [2]: 53.3 µM
IC50 [3]: 61.7 µM

SMILES: CC(=O)Nc1cccc(-c2csc(NCc3ccccc3)n2)c1
IC50 (AlphaScreen, mean of runs): > 100 µM (inactive)
IC50 [1]: > 100 µM
IC50 (FP, mean of runs): > 95 µM (inactive)
IC50 [2]: > 95 µM
IC50 [3]: > 95 µM

SMILES: Cc1ccsc1C(=O)N1CCCC(CO)(Cc2ccccc2F)C1 (stereo not given)
IC50 (AlphaScreen, mean of runs): > 100 µM (inactive)
IC50 [1]: > 100 µM
IC50 (FP, mean of runs): > 95 µM (inactive)
IC50 [2]: > 95 µM
IC50 [3]: > 95 µM

SMILES: O=C1C=CC(=O)C2C1C1(Cl)C(Cl)=C(Cl)C2(Cl)C1(Cl)Cl (stereo not given)
IC50 (AlphaScreen, mean of runs): > 100 µM (inactive)
IC50 [1]: > 100 µM
IC50 (FP, mean of runs): > 95 µM (inactive)
IC50 [2]: > 95 µM
IC50 [3]: > 95 µM

SMILES: CCCCOC(=O)c1ccc(NS(=O)(=O)c2cc(-c3nnnn3CC)ccc2OC)cc1
IC50 (AlphaScreen, mean of runs): > 100 µM (inactive)
IC50 [1]: > 100 µM
IC50 (FP, mean of runs): > 95 µM (inactive)
IC50 [2]: > 95 µM
IC50 [3]: > 95 µM

SMILES: Cc1[nH]n(-c2ccccc2)c(=S)c1C=Nc1cccc([N+](=O)[O-])c1
IC50 (AlphaScreen, mean of runs): > 100 µM (inactive)
IC50 [1]: > 100 µM
IC50 (FP, mean of runs): > 95 µM (inactive)
IC50 [2]: > 95 µM
IC50 [3]: > 95 µM

SMILES: CC(C)C1=C2CCCCC2NC(=O)N1 (stereo not given)
IC50 (AlphaScreen, mean of runs): > 100 µM (inactive)
IC50 [1]: > 100 µM
IC50 (FP, mean of runs): > 95 µM (inactive)
IC50 [2]: > 95 µM
IC50 [3]: > 95 µM

Now from value to compound:

IC50 (AlphaScreen, mean of runs): > 100 µM (inactive)
IC50 [1]: > 100 µM
IC50 (FP, mean of runs): > 95 µM (inactive)
IC50 [2]: > 95 µM
IC50 [3]: > 95 µM
SMILES: O=C(O)CCCC(=O)N1CCc2cc(S(=O)(=O)N3CCc4ccccc43)ccc21

IC50 (AlphaScreen, mean of runs): > 100 µM (inactive)
IC50 [1]: > 100 µM
IC50 (FP, mean of runs): > 95 µM (inactive)
IC50 [2]: > 95 µM
IC50 [3]: > 95 µM
SMILES: CC1(c2ccccc2)CC(C)(C)n2c(O)c(C3=NC(=S)NC3=O)c3cccc1c32 (stereo not given)

IC50 (AlphaScreen, mean of runs): > 100 µM (inactive)
IC50 [1]: > 100 µM
IC50 (FP, mean of runs): > 95 µM (inactive)
IC50 [2]: > 95 µM
IC50 [3]: > 95 µM
SMILES: O=C(COc1cc(Cl)c(Cl)cc1Cl)Nc1ccc([N+](=O)[O-])cc1Cl

IC50 (AlphaScreen, mean of runs): > 100 µM (inactive)
IC50 [1]: > 100 µM
IC50 (FP, mean of runs): > 95 µM (inactive)
IC50 [2]: > 95 µM
IC50 [3]: > 95 µM
SMILES: c1ccc2c3n(nc2c1)CCCO3

IC50 (AlphaScreen, mean of runs): inactive
IC50 [1]: 40.7 µM
IC50 (FP, mean of runs): > 95 µM (inactive)
IC50 [2]: > 95 µM
IC50 [3]: > 95 µM
SMILES: Cn1c(=O)c2c(nc(OCc3cccnc3)n2Cc2ccccc2)n(C)c1=O

IC50 (AlphaScreen, mean of runs): > 100 µM (inactive)
IC50 [1]: > 100 µM
IC50 (FP, mean of runs): > 95 µM (inactive)
IC50 [2]: > 95 µM
IC50 [3]: > 95 µM
SMILES: COc1ccc(-c2csc(Nc3cccnc3)n2)cc1

IC50 (AlphaScreen, mean of runs): 19.5 µM
IC50 [1]: 19.6 µM
IC50 (FP, mean of runs): > 95 µM (inactive)
IC50 [2]: > 95 µM
IC50 [3]: > 95 µM
SMILES: O=c1[nH]c(Nc2ccccn2)cc2ccccc12
